One assay relates to HCT-116. As to the kind of experiment: NCI one-dose SRB anti-proliferative screen. The format is cell-based, human. Conditions: for inhibition at 10 µM: Homo sapiens, read-out: Cell growth inhibition %. As for the experimental part: (§1) The twenty-four synthesized compounds were submitted to the National Cancer Institute (NCI), USA. Eighteen hybrids 7a-h, 7k-r, 7u, and 7v were selected by NCI for one-dose assessment of their anti-proliferative activities at 10 µM dose by Sulforhodamine B colorimetric assay. The assessment was performed in 60 cell lines derived from nine tumor subpanels, comprising lung, leukemia, melanoma, colon, renal, CNS, prostate, breast, and ovarian cancer cell lines.
(§2) The methodology of the NCI anti-proliferative screening has been described in details elsewhere (http://www.dtp.nci.nih.gov).

Another assay has as its system MOLT-4. The assay is described as follows: NCI one-dose SRB anti-proliferative screen. The format is cell-based, human. Conditions: for inhibition at 10 µM: Homo sapiens, read-out: Cell growth inhibition %. On the procedure:
as §1, §2

The next assay deals with RXF 393. As to the kind of experiment: NCI one-dose SRB anti-proliferative screen. The format is cell-based, human. Conditions: for inhibition at 10 µM: Homo sapiens, read-out: Cell growth inhibition %. As for the experimental part:
as §1, §2

The subject of another assay is K-562. As to the kind of experiment: NCI one-dose SRB anti-proliferative screen. The following applies: for inhibition at 10 µM: Homo sapiens, K562, read-out: Cell growth inhibition %. The format is cell-based, human. As for the experimental part: as §1, §2
In a further assay the test system is T-47D. The assay is described as follows: NCI one-dose SRB anti-proliferative screen. The format is cell-based, human. The following applies: Homo sapiens, T47D, read-out: Cell growth inhibition %. On the procedure:
as §1, §2

The next assay has as its system HT29. The assay is described as follows: NCI one-dose SRB anti-proliferative screen. Conditions: Homo sapiens, HT-29, read-out: Cell growth inhibition %. The format is cell-based. As for the experimental part:
as §1, §2

The test system of another assay is RPMI-8226. As to the kind of experiment: NCI one-dose SRB anti-proliferative screen. The format is cell-based. Conditions: Homo sapiens, read-out: Cell growth inhibition %. As for the experimental part:
as §1, §2

A further assay relates to SF-268. As to the kind of experiment: NCI one-dose SRB anti-proliferative screen. The format is cell-based. The following applies: Homo sapiens, read-out: Cell growth inhibition %. On the procedure: as §1, §2
A further assay relates to IGROV1. The assay is described as follows: NCI one-dose SRB anti-proliferative screen. The format is cell-based. The following applies: Homo sapiens, IGROV-1, read-out: Cell growth inhibition %. On the procedure:
as §1, §2

A further assay has as its system HOP-92. The assay is described as follows: NCI one-dose SRB anti-proliferative screen. The following applies: Homo sapiens, read-out: Cell growth inhibition %. The format is cell-based. As for the experimental part: as §1, §2
A further assay deals with SNB-75. The assay is described as follows: NCI one-dose SRB anti-proliferative screen. The following applies: Homo sapiens, read-out: Cell growth inhibition %. The format is cell-based. On the procedure: as §1, §2
Another assay concerns CAKI-1. As to the kind of experiment: NCI one-dose SRB anti-proliferative screen. The format is cell-based. Conditions: Homo sapiens, read-out: Cell growth inhibition %. As for the experimental part:
as §1, §2

The next assay deals with NCI-H460. As to the kind of experiment: NCI one-dose SRB anti-proliferative screen. The following applies: Homo sapiens, read-out: Cell growth inhibition %. The format is cell-based. As for the experimental part: as §1, §2
The next assay deals with SNB-19. The assay is described as follows: NCI one-dose SRB anti-proliferative screen. The format is cell-based. Conditions: Homo sapiens, read-out: Cell growth inhibition %. As for the experimental part: as §1, §2
A further assay has as its system HS 578T. As to the kind of experiment: NCI one-dose SRB anti-proliferative screen. The format is cell-based. The following applies: Homo sapiens, read-out: Cell growth inhibition %. On the procedure: as §1, §2
A further assay deals with SF-295. The assay is described as follows: NCI one-dose SRB anti-proliferative screen. The format is cell-based. Conditions: Homo sapiens, read-out: Cell growth inhibition %. On the procedure: as §1, §2
The next assay deals with MDA-MB-468. As to the kind of experiment: NCI one-dose SRB anti-proliferative screen. The format is cell-based. The following applies: Homo sapiens, read-out: Cell growth inhibition %. On the procedure:
as §1, §2

For another assay, the system named is HT-29. As to the kind of experiment: Propidium iodide anti-proliferative assay. The format is cell-based. Conditions: Homo sapiens, 48 h incubation, read-out: IC50 ± SEM HT-29. In outline:
(§3)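 Cells seeded at 3000-7500 cells/well and grown 24 h at 37 °C, then treated with compounds (10 µM in 0.1% DMSO, triplicate; IC50 runs at varied concentrations) for 48 h. PI added, plates frozen 24 h at -80 °C and thawed, fluorescence read at 530/620 nm; % cytotoxicity versus 0.1% DMSO control.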

In the next assay the test system is MCF-7. The assay is described as follows: Propidium iodide anti-proliferative assay. The format is cell-based. The following applies: Homo sapiens, MCF7; 48 h incubation; read-out: IC50 ± SEM MCF-7. The essentials:
as §3

For the next assay, the system named is Panc-1. The assay is described as follows: Propidium iodide anti-proliferative assay. The format is cell-based. The following applies: Homo sapiens, 48 h incubation, read-out: IC50 ± SEM Panc-1. The essentials:
as §3

For the next assay, the system named is A-549. The assay is described as follows: Propidium iodide anti-proliferative assay. The following applies: Homo sapiens, A549; 48 h incubation; read-out: IC50 ± SEM A-549. The format is cell-based. In outline: as §3
The mark [1] stands for this setting: HCT-116, Colon cancer, NCI one dose.
[2] abbreviates: RXF 393, Renal cancer, NCI one dose.
Where [3] appears, read: T-47D, Breast cancer, NCI one dose.
Where [4] appears, read: HT29, Colon cancer, NCI one dose.
Setting [5] is: RPMI-8226, Leukemia, NCI one dose.
[6] abbreviates: SF-268, CNS Cancer, NCI one dose.
[7] abbreviates: IGROV1, Ovarian Cancer, NCI one dose.
[8] abbreviates: HOP-92, Non-Small Cell Lung Cancer, NCI one dose.
The mark [9] stands for this setting: SNB-75, CNS Cancer, NCI one dose.
Where [10] appears, read: CAKI-1, Renal cancer, NCI one dose.
The mark [11] stands for this setting: NCI-H460, Non-Small Cell Lung Cancer, NCI one dose.
[12] abbreviates: SNB-19, CNS Cancer, NCI one dose.
Setting [13] is: HS 578T, Breast cancer, NCI one dose.
[14] abbreviates: SF-295, CNS Cancer, NCI one dose.
Setting [15] is: MDA-MB-468, Breast cancer, NCI one dose.

This note sets out measurements from paper PMC10504751, “Chalcone/1,3,4-Oxadiazole/Benzimidazole hybrids as novel anti-proliferative agents inducing apoptosis and inhibiting EGFR & BRAFV^600E” (BMC Chemistry, 2023).

Where two headings read alike, the source gives them in different places.

By inhibition is commonly meant the change of the read-out against control, counted positive when it falls. As usually defined, the IC50 is the concentration that inhibits the measured activity by half.

In the case of `COc1cc(/C=C/C(=O)c2ccc(NC(=O)CSc3nnc(-c4ccc5[nH]c(-c6ccccc6)nc5c4)o3)cc2)cc(OC)c1OC` [Compound 7e, 2-{5-[2-Phenyl-1 H-benzo[d]imidazol-5-yl]-1,3,4-oxadiazol-2-ylthio}-N-{4-[(E)-3-(3,4,5-trimethoxyphenyl)acryloyl]phenyl}acetamide], the “Growth Percent” value is 40.76% in the assay on HCT-116 (HCT-116 (Colon Cancer), 10 µM one dose); 30% with MOLT-4 (MOLT-4 (Leukemia), 10 µM one dose); -6.89% in the assay on RXF 393 (RXF 393 (Renal Cancer), 10 µM one dose); 58% in the assay with K-562 (K-562 (Leukemia), 10 µM one dose). For the same compound, the inhibition at 10 µM was 59.2% with HCT-116 (setting [1]); 35% with MOLT-4 (MOLT-4, Leukemia, NCI one dose); 107% in the assay on RXF 393 (setting [2]); 41.7% in the assay with K-562 (K-562, Leukemia, NCI one dose); 11.1% in the assay with T-47D (setting [3]); 0% in the assay on HT29 (setting [4]). Besides, the inhibition at 10 µM is 69.3% in the assay on RPMI-8226 (setting [5]); 2.34% with SF-268 (setting [6]); 2.76% in the assay on IGROV1 (setting [7]); 0% with HOP-92 (setting [8]); 18.9% in the assay on SNB-75 (setting [9]); 0% in the assay with CAKI-1 (setting [10]). Besides, the inhibition at 10 µM with NCI-H460 (setting [11]) came to 7.53%; with SNB-19 (setting [12]), 15.6%; in the assay with HS 578T (setting [13]), 14.5%; with SF-295 (setting [14]), 0%; in the assay on MDA-MB-468 (setting [15]), 5.09%. In addition, the concentration for half-maximal inhibition (IC50) in the assay with HT-29 stood at 1950 ± 300 nM; with MCF-7, 1250 ± 80 nM; in the assay with Panc-1 it was 1700 ± 300 nM; in the assay with A-549, 1600 ± 300 nM.
For `COc1ccc(/C=C/C(=O)c2ccc(NC(=O)CSc3nnc(-c4ccc5[nH]c(-c6ccc(Cl)cc6)nc5c4)o3)cc2)cc1` [Compound 7h, 2-{5-[2-(4-Chlorophenyl)-1 H-benzo[d]imidazol-5-yl]-1,3,4-oxadiazol-2-ylthio}-N-{4-[(E)-3-(4-methoxyphenyl)acryloyl]phenyl}acetamide], the inhibition at 10 µM in the assay on HCT-116 (HCT-116 (Colon Cancer), NCI one dose 10 µM) worked out at 6.56%; in the assay with MOLT-4 (MOLT-4 (Leukemia), NCI one dose 10 µM), 35.4%; in the assay on RXF 393 (RXF 393 (Renal Cancer), NCI one dose 10 µM), 0%; in the assay on K-562 (K-562 (Leukemia), NCI one dose 10 µM), 12.7%; with T-47D (T-47D (Breast Cancer), NCI one dose 10 µM), 22%; with HT29 (HT29 (Colon Cancer), NCI one dose 10 µM) it was 0%. Besides, the inhibition at 10 µM turned out to be 35.6% with RPMI-8226 (RPMI-8226 (Leukemia), NCI one dose 10 µM); 0% with SF-268 (SF-268 (CNS Cancer), NCI one dose 10 µM); 4.69% in the assay on IGROV1 (IGROV1 (Ovarian Cancer), NCI one dose 10 µM); 0% in the assay with HOP-92 (HOP-92 (Non-Small Cell Lung Cancer), NCI one dose 10 µM); 1.47% in the assay on SNB-75 (SNB-75 (CNS Cancer), NCI one dose 10 µM); 2.63% in the assay with CAKI-1 (CAKI-1 (Renal Cancer), NCI one dose 10 µM). Also, the inhibition at 10 µM in the assay with NCI-H460 (NCI-H460 (Non-Small Cell Lung Cancer), NCI one dose 10 µM) was found to be 0%; in the assay on SNB-19 (SNB-19 (CNS Cancer), NCI one dose 10 µM) it was 0%; with HS 578T (HS 578T (Breast Cancer), NCI one dose 10 µM), 5.34%; in the assay on SF-295 (SF-295 (CNS Cancer), NCI one dose 10 µM), 0%; in the assay on MDA-MB-468 (MDA-MB-468 (Breast Cancer), NCI one dose 10 µM), 0%. The IC50 in the assay on HT-29 is 2250 ± 600 nM; with MCF-7, 1750 ± 400 nM; with Panc-1, 2050 ± 500 nM; in the assay with A-549, 1950 ± 600 nM.
For `COc1ccc(-c2nc3cc(-c4nnc(SCC(=O)Nc5ccc(C(=O)/C=C/c6ccc(Cl)cc6)cc5)o4)ccc3[nH]2)cc1` [Compound 7l, 2-{5-[2-(4-Methoxyphenyl)-1 H-benzo[d]imidazol-5-yl]-1,3,4-oxadiazol-2-ylthio}-N-{4-[(E)-3-(4-chlorophenyl)acryloyl]phenyl}acetamide], the inhibition at 10 µM in the assay on HCT-116 (setting [1]) was 0%; in the assay on MOLT-4 (MOLT-4, Leukemia, NCI one dose), 11.7%; in the assay on RXF 393 (setting [2]), 1.82%; in the assay with K-562 (K-562, Leukemia, NCI one dose), 6.12%; in the assay on T-47D (setting [3]) it was 7.23%; in the assay with HT29 (setting [4]), 0%. The inhibition at 10 µM was found to be 20.1% with RPMI-8226 (setting [5]); 5.15% in the assay on SF-268 (setting [6]); 12.8% in the assay on IGROV1 (setting [7]); 5.04% with HOP-92 (setting [8]); 5.35% with SNB-75 (setting [9]); 2.8% in the assay with CAKI-1 (setting [10]). Besides, the inhibition at 10 µM was 0% with NCI-H460 (setting [11]); 0% in the assay with SNB-19 (setting [12]); 9.4% in the assay on HS 578T (setting [13]); 4.12% with SF-295 (setting [14]); 1.89% in the assay on MDA-MB-468 (setting [15]). Moreover, the concentration for half-maximal inhibition (IC50) with HT-29 was determined as 1650 ± 300 nM; in the assay with MCF-7, 1100 ± 100 nM; in the assay on Panc-1, 1500 ± 300 nM; in the assay with A-549 it was 1450 ± 300 nM.
